From patent US10765114B2, “4-amino-6-(pyridyl and 2-substitutedphenyl)-picolinates and 6-amino-2-(pyridyl and 2-substitutedphenyl)-pyrimidine-4-carboxylates and their use as herbicides” (Dow AgroSciences LLC, priority 2013, dated 2020)

Key:
Assay in all cases: Post-Emergent Test III (Wheat and Barley)
[1] = test system: VERPE (Persian speedwell); assay type: in vivo, Veronica persica; conditions: for Visual Growth Reduction (%) 21 Days After Application, VERPE: postemergence
Method: (§1) Seeds of the desired test plant species were planted in Sun Gro MetroMix® 306 planting mixture, which typically has a pH of 6.0 to 6.8 and an organic matter content of about 30 percent, in plastic pots with a surface area of 103.2 square centimeters (cm^2). When required to ensure good germination and healthy plants, a fungicide treatment and/or other chemical or physical treatment was applied. The plants were grown for 7-36 days in a greenhouse with an approximate 14 h photoperiod which was maintained at about 18° C. during the day and 17° C. during the night. Nutrients and water were added on a regular basis and supplemental lighting was provided with overhead metal halide 1000-Watt lamps as necessary. The plants were employed for testing when they reached the second or third true leaf stage.
(§2) A weighed amount, determined by the highest rate to be tested, of each test compound was placed in a 25 mL glass vial and was dissolved in 4 mL of a 97:3 v/v mixture of acetone and DMSO to obtain concentrated stock solutions. […] The concentrated stock solutions obtained were diluted with 20 mL of an aqueous mixture containing acetone, water, isopropyl alcohol, DMSO, Agri-Dex crop oil concentrate, and X-77 surfactant in a 48:39:10:1.5:1.5:0.02 v/v ratio to obtain spray solutions containing the highest application rates. Additional application rates were obtained by serial dilution of 12 mL of the high rate solution into a solution containing 2 mL of 97:3 v/v mixture of acetone and DMSO and 10 mL of an aqueous mixture containing acetone, water, isopropyl alcohol, DMSO, Agri-Dex crop oil concentrate, and X-77 surfactant in a 48:39:10:1.5:1.5:0.02 v/v ratio to obtain ½×, ¼×, ⅛× and 1/16× rates of the high rate. Compound requirements are based upon a 12 mL application volume at a rate of 187 liters per hectare (L/ha). Formulated compounds were applied to the plant material with an overhead Mandel track sprayer equipped with 8002E nozzles calibrated to deliver 187 L/ha over an application area of 0.503 square meters at a spray height of 18 inches (43 cm) above the average plant canopy height. Control plants were sprayed in the same manner with the solvent blank.
(§3) The treated plants and control plants were placed in a greenhouse as described above and watered by subirrigation to prevent wash-off of the test compounds. After 21 dAYS, the condition of the test plants as compared with that of the untreated plants was determined visually and scored on a scale of 0 to 100 percent where 0 corresponds to no injury and 100 corresponds to complete kill and presented as indicated in Table A.
(§4) By applying the well-accepted probit analysis as described by J. Berkson in Journal of the American Statistical Society, 48, 565 (1953) and by D. Finney in “Probit Analysis” Cambridge University Press (1952), herbicidal injury of a specific compound at various rates can be used to calculate GR10, GR20, GR50, GR80 and GR90 values, which are defined as growth reduction factors that correspond to the effective dose of herbicide required to provide plant growth reduction (GR) of 10 percent, 20 percent, 50 percent, 80 percent and 90 percent, respectively. Probit analysis was applied to data collected from multiple dose rates of individual compounds utilizing the procedures explained in the following examples. The analysis of those dose rates is captured in the following tables.

[2] = test system: KCHSC (kochia); assay type: in vivo, Kochia scoparia
Method in brief: (§5)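 Seedlings are raised in a greenhouse at about 18/17 °C with a 14 h photoperiod until the second or third true leaf. They are then sprayed overhead at 187 L/ha over a range of rates down to 1/16× the highest. After 21 days, injury is scored visually, 0–100%.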

[3] = test system: POLCO (wild buckwheat); assay type: in vivo, Polygonum convolvulus; conditions: for Visual Growth Reduction (%) 21 Days After Application, POLCO: postemergence
Method: as §1, §2, §3, §4

[4] = test system: BRSSS; assay type: in vivo; conditions: for Visual Growth Reduction (%) 21 Days After Application, BRSSS: postemergence
Method in brief: as §5

[5] = test system: HORSS; assay type: in vivo
Method in brief: as §5

[6] = test system: TRZSS; assay type: in vivo
Method in brief: as §5

[7] = test system: APESV (windgrass); assay type: in vivo, Apera spica-venti
Method in brief: as §5

[8] = test system: PAPRH (common poppy); assay type: in vivo, Papaver rhoeas; conditions: for Visual Growth Reduction (%) 21 Days After Application, PAPRH: postemergence
Method: as §1, §2, §3, §4

[9] = effective dose for growth reduction of 50 percent, probit analysis
[10] = effective dose for growth reduction of 80 percent, probit analysis
[11] = effective dose for growth reduction of 90 percent, probit analysis
[12] = effective dose for growth reduction of 10 percent, probit analysis
[13] = effective dose for growth reduction of 20 percent, probit analysis

**Q.** For COC(=O)c1nc(-c2ccc(Cl)c(F)c2C)cc(N)c1Cl [Compound 73], which “Visual Growth Reduction (%) 21 Days After Application, VERPE” value ([1]; 35 g ai/ha) is on record?
**A.** Its value is “G (0-29)”.

**Q.** What about the “Visual Growth Reduction (%) 21 Days After Application, VERPE” value ([1]; 70 g ai/ha) of the same compound?
**A.** The value was “G (0-29)”.

**Q.** What about the “Visual Growth Reduction (%) 21 Days After Application, VERPE” value ([1]; 140 g ai/ha) of the same compound?
**A.** Its value is “F (30-44)”.

**Q.** What about the “GR50, VERPE” value [1, 9] of the same compound?
**A.** The value was greater than 140 g ai/ha.

**Q.** And the “GR80, VERPE” value [1, 10]?
**A.** Its value is greater than 140 g ai/ha.

**Q.** What about the “GR90, VERPE” value [1, 11] of the same compound?
**A.** The value was greater than 140 g ai/ha.

**Q.** And the pest or weed control at 35 g/ha ([2]; Bassia scoparia, post-emergence, 504 h, 35 g ai/ha, postemergence, read-out: Visual Growth Reduction (%) 21 Days After Application, KCHSC)?
**A.** The pest or weed control at 35 g/ha was 85 to 94%.

**Q.** And the pest or weed control at 70 g/ha ([2]; Bassia scoparia, post-emergence, 504 h, 70 g ai/ha, postemergence, read-out: Visual Growth Reduction (%) 21 Days After Application, KCHSC)?
**A.** The pest or weed control at 70 g/ha was 95 to 100%.

**Q.** What about the pest or weed control at 140 g/ha ([2]; Bassia scoparia, post-emergence, 504 h, 140 g ai/ha, postemergence, read-out: Visual Growth Reduction (%) 21 Days After Application, KCHSC) of the same compound?
**A.** The pest or weed control at 140 g/ha was 95 to 100%.

**Q.** What about the “GR50, KCHSC” value [2, 9] of the same compound?
**A.** Its value is 8 g ai/ha.

**Q.** And the “GR80, KCHSC” value [2, 10]?
**A.** Its value is 21 g ai/ha.

**Q.** And the “GR90, KCHSC” value [2, 11]?
**A.** The value was 35 g ai/ha.

**Q.** What about the “Visual Growth Reduction (%) 21 Days After Application, POLCO” value ([3]; 35 g ai/ha) of the same compound?
**A.** The value was “A (95-100)”.

**Q.** What about the “Visual Growth Reduction (%) 21 Days After Application, POLCO” value ([3]; 70 g ai/ha) of the same compound?
**A.** The value was “A (95-100)”.

**Q.** And the “Visual Growth Reduction (%) 21 Days After Application, POLCO” value ([3]; 140 g ai/ha)?
**A.** Its value is “A (95-100)”.

**Q.** And the “GR50, POLCO” value [3, 9]?
**A.** The value was 7 g ai/ha.

**Q.** And the “GR80, POLCO” value [3, 10]?
**A.** Its value is 10 g ai/ha.

**Q.** What about the “GR90, POLCO” value [3, 11] of the same compound?
**A.** Its value is 12 g ai/ha.

**Q.** And the “Visual Growth Reduction (%) 21 Days After Application, BRSSS” value ([4]; 35 g ai/ha)?
**A.** Its value is “C (75-84)”.

**Q.** And the “Visual Growth Reduction (%) 21 Days After Application, BRSSS” value ([4]; 70 g ai/ha)?
**A.** Its value is “B (85-94)”.

**Q.** What about the “Visual Growth Reduction (%) 21 Days After Application, BRSSS” value ([4]; 140 g ai/ha) of the same compound?
**A.** The value was “A (95-100)”.

**Q.** And the “GR50, BRSSS” value [4, 9]?
**A.** The value was 5 g ai/ha.

**Q.** And the “GR80, BRSSS” value [4, 10]?
**A.** Its value is 29 g ai/ha.

**Q.** And the “GR90, BRSSS” value [4, 11]?
**A.** Its value is 73 g ai/ha.

**Q.** What about the pest or weed control at 35 g/ha ([5]; Hordeum vulgare, post-emergence, 504 h, 35 g ai/ha, postemergence, read-out: Visual Growth Reduction (%) 21 Days After Application, HORSS) of the same compound?
**A.** The pest or weed control at 35 g/ha was 60 to 74%.

**Q.** And the pest or weed control at 70 g/ha ([5]; Hordeum vulgare, post-emergence, 504 h, 70 g ai/ha, postemergence, read-out: Visual Growth Reduction (%) 21 Days After Application, HORSS)?
**A.** The pest or weed control at 70 g/ha was 60 to 74%.

**Q.** And the pest or weed control at 140 g/ha ([5]; Hordeum vulgare, post-emergence, 504 h, 140 g ai/ha, postemergence, read-out: Visual Growth Reduction (%) 21 Days After Application, HORSS)?
**A.** Its pest or weed control at 140 g/ha is 75 to 84%.

**Q.** What about the “GR10, HORSS” value [5, 12] of the same compound?
**A.** Its value is 2 g ai/ha.

**Q.** And the “GR20, HORSS” value [5, 13]?
**A.** The value was 5 g ai/ha.

**Q.** And the pest or weed control at 35 g/ha ([6]; Triticum aestivum, post-emergence, 504 h, 35 g ai/ha, postemergence, read-out: Visual Growth Reduction (%) 21 Days After Application, TRZSS)?
**A.** Its pest or weed control at 35 g/ha is 60 to 74%.

**Q.** And the pest or weed control at 70 g/ha ([6]; Triticum aestivum, post-emergence, 504 h, 70 g ai/ha, postemergence, read-out: Visual Growth Reduction (%) 21 Days After Application, TRZSS)?
**A.** The pest or weed control at 70 g/ha was 60 to 74%.

**Q.** What about the pest or weed control at 140 g/ha ([6]; Triticum aestivum, post-emergence, 504 h, 140 g ai/ha, postemergence, read-out: Visual Growth Reduction (%) 21 Days After Application, TRZSS) of the same compound?
**A.** Its pest or weed control at 140 g/ha is 75 to 84%.

**Q.** What about the “GR10, TRZSS” value [6, 12] of the same compound?
**A.** Its value is 3 g ai/ha.

**Q.** What about the “GR20, TRZSS” value [6, 13] of the same compound?
**A.** The value was 6 g ai/ha.

**Q.** And the pest or weed control at 35 g/ha ([7]; Apera spica-venti, post-emergence, 504 h, 35 g ai/ha, postemergence, read-out: Visual Growth Reduction (%) 21 Days After Application, APESV)?
**A.** Its pest or weed control at 35 g/ha is 45 to 59%.

**Q.** And the pest or weed control at 70 g/ha ([7]; Apera spica-venti, post-emergence, 504 h, 70 g ai/ha, postemergence, read-out: Visual Growth Reduction (%) 21 Days After Application, APESV)?
**A.** The pest or weed control at 70 g/ha was 60 to 74%.

**Q.** And the pest or weed control at 140 g/ha ([7]; Apera spica-venti, post-emergence, 504 h, 140 g ai/ha, postemergence, read-out: Visual Growth Reduction (%) 21 Days After Application, APESV)?
**A.** Its pest or weed control at 140 g/ha is 85 to 94%.

**Q.** What about the “GR50, APESV” value [7, 9] of the same compound?
**A.** Its value is 32 g ai/ha.

**Q.** And the “GR80, APESV” value [7, 10]?
**A.** Its value is 90 g ai/ha.

**Q.** And the “GR90, APESV” value [7, 11]?
**A.** The value was greater than 140 g ai/ha.

**Q.** What about the “Visual Growth Reduction (%) 21 Days After Application, PAPRH” value ([8]; 35 g ai/ha) of the same compound?
**A.** The value was “D (60-74)”.

**Q.** What about the “Visual Growth Reduction (%) 21 Days After Application, PAPRH” value ([8]; 70 g ai/ha) of the same compound?
**A.** Its value is “D (60-74)”.

**Q.** What about the “Visual Growth Reduction (%) 21 Days After Application, PAPRH” value ([8]; 140 g ai/ha) of the same compound?
**A.** The value was “A (95-100)”.

**Q.** And the “GR50, PAPRH” value [8, 9]?
**A.** Its value is 15 g ai/ha.

**Q.** And the “GR80, PAPRH” value [8, 10]?
**A.** Its value is 48 g ai/ha.

**Q.** What about the “GR90, PAPRH” value [8, 11] of the same compound?
**A.** The value was 90 g ai/ha.
